How the values were obtained:
[1] = system: AKT; assay: Phosphorylation of AKT on Thr308 in L6 cells, Western blot; format: cell-based, rat; conditions: 10 μM insulin (Ins) alone, 30 min, FIG. 1(b)
Protocol: (§1) […] muscle myoblast cells (L6) was a generous gift from Professor Hitoshi Ashida's Lab. (Kobe University, Kobe, Japan). The cells were grown and maintained in α-minimal essential medium (α-MEM, 12000022, GIBCO, CA, USA) containing 10% fetal bovine serum (FBS, GIBCO) and 1% penicillin streptomycin (GIBCO) in a cell culture incubator with 5% CO2 at 37° C. Prior to the following experiments, the cells were seeded and cultured at a density of 8×10^3 cells per well in 96-well plates or 2.5×10^5 cells per well in 6-well plates. After the myoblasts achieved 80% confluence, the cells were incubated for 5 days in the α-MEM supplemented with 2% FBS to induce differentiation to myotubes.
The L6 cells were fully differentiated with α-MEM supplemented with 2% FBS for 5 days to myotubes. The cells were washed twice with PBS containing 0.1% BSA and subsequently incubated α-MEM containing 0.25% BSA with or without 100 nM of S961, and then treated with or without 100 μM of Tetracosanol for 90 min. Then, the cells were treated with or without 10 μM of insulin for 30 min. Finally, the cells were collected and washed twice in KRH buffer, then lysed in ice-cold RIPA buffer for 60 min. After centrifugation at 12,000×g for 30 min. at 4° C., the supernatant was kept at −80° C. until use. The levels of the proteins including phospho-AKT (Thr308), AKT, phospho-AMPK (Thr172), and AMPK (Cell Signaling) were detected and evaluated by Western blot with primary antibody.
(§2) The cells after treatments were collected and washed twice in cold KRH buffer, and then lysed in ice-cold RIPA buffer incubation at 4° C. for 60 min. After centrifugation at 12,000×g for 30 min at 4° C., the supernatant was kept and quantified by Bradford protein assay (Bio-Rad, Hercules, Calif., USA). The proteins were separated using sodium dodecyl sulfate polyacrylamide gel electrophoresis (SDS-PAGE) and subsequently transferred to PVDF (Perkin Elmer Life Sciences, Boston, Mass., USA) membrane. […] The signals were monitored using Western Lightning™ Plus-ECL (Perkin Elmer Life Sciences) and the PVDF membrane was exposed to Luminescent image analyzer (LAS)-3000 (Fujifilm, Minato, Tokyo, Japan). Acquired data were analyzed and compared the difference among treatments.
The differentiated L6 cells were incubated with 100 μM of tetracosanol (Tet) at 37° C. for 90 min, and then treated 10 μM of insulin (Ins) at 37° C. for 5 or 30 min. The cell lysates were separated by SDS-PAGE and blotted 5 min for phospho-Insr on Tyr1158, 1162, and 1163 (Insr, 100 kDa), and phospho-AKT on Thr308 protein level was measured at 30 min in Western blot analysis.

[2] = biological target: T1, Insr (Rattus norvegicus, UniProt P15127); assay: Phosphorylation of insulin receptors (Tyr1158/Tyr1162/Tyr1163) in L6 cells, Western blot; format: cell-based; conditions: 10 μM insulin (Ins) alone, 5 min, FIG. 1(a)
T1 construct: L6 cells were fully differentiated with α-MEM supplemented with 2% FBS for 5 days to myotubes; endogenous in cells; host or cells: L6 myoblasts differentiated to myotubes
T1 sequence (P15127 27-759 limits assumed): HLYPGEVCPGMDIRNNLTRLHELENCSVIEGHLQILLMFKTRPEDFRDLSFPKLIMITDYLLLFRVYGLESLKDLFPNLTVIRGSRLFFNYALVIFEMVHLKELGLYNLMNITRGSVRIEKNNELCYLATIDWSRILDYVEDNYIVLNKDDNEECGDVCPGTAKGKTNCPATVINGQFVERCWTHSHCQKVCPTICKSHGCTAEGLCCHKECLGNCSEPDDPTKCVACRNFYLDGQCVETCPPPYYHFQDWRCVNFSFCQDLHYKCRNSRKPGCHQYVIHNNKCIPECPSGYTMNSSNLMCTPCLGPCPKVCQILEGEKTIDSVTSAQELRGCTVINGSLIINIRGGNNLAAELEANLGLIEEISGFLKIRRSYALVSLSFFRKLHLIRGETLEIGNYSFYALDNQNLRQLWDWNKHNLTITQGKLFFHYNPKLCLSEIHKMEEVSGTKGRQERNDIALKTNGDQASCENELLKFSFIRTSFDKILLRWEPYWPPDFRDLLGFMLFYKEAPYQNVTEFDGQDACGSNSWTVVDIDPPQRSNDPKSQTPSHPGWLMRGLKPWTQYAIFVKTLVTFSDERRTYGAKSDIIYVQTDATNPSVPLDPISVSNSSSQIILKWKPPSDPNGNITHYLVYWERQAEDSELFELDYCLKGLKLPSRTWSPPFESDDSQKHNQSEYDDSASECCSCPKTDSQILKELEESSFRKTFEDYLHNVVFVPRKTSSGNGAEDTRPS
T1 sequence (P15127 764-1383 limits assumed): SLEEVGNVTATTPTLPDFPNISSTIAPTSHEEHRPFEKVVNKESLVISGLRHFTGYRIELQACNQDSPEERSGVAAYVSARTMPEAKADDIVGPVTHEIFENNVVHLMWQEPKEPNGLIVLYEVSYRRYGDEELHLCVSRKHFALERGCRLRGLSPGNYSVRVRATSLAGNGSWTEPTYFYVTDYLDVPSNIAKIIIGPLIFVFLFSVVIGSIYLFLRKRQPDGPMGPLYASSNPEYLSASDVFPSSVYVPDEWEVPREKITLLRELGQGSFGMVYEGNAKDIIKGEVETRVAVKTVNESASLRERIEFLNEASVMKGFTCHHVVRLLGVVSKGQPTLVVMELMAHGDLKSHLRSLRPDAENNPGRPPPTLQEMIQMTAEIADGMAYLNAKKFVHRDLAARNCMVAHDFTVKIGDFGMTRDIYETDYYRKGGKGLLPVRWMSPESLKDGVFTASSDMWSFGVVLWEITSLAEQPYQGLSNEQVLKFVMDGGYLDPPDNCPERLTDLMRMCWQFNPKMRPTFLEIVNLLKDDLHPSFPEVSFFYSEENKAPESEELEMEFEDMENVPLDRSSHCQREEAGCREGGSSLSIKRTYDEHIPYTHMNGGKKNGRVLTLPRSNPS
Protocol: as §1
L6 cells were fully differentiated with α-MEM supplemented with 2% FBS for 5 days to myotubes. The cells were washed twice with Phosphate Buffered Saline (PBS) containing 0.1% BSA and subsequently incubated α-MEM containing 0.25% BSA with or without 100 nM of S961, and treated with or without 100 μM of Tetracosanol for 90 min. Then, the cells were treated with or without 10 μM of insulin for 5 min. […] The levels of the proteins including phospho-Insulin receptors (Tyr1158/Tyr1162/Tyr1163) and Insulin receptor (Cell Signaling, Boston, Mass., USA) were detected and evaluated by Western blot with primary antibody.
as §2, with “USA).” for “USA). The proteins were separated using sodium dodecyl sulfate polyacrylamide gel electrophoresis (SDS-PAGE) and subsequently transferred to PVDF (Perkin Elmer Life Sciences, Boston, Mass., USA) membrane.”, “treatments. […]” for “treatments.”

phosphorylation of phospho-Insr on Tyr1158, 1162, and 1163 [2]: tended to be enhanced
Substance: insulin: Insulin purchased from Novo-Nordisk [reference compound]
phospho-AKT on Thr 308 [1]: induced the phospho-AKT on Thr 308
